Assay results from patent US20180000085A1, “USE OF PICOLINAMIDE COMPOUNDS WITH FUNGICIDAL ACTIVITY” (DOW AGROSCIENCES LLC, priority 2014, published 2018).

Key:
Assay type in all cases: in vivo
Conditions in all cases: 100 ppm, 1 Day Protectant
Rhyncosporium secalis = test: Barley scald (RHYNSE) disease control; set-up: key: A: > 80; B: ≤ 80; C: Not Tested; D: No Activity Observed in the Reported Assay
Description: All fungicides were evaluated using the aforementioned method for their activity vs. all target diseases, unless stated otherwise. Wheat leaf blotch and brown rust activity were also evaluated using track spray applications, in which case the fungicides were formulated as EC formulations, containing 0.1% Trycol 5941 in the spray solutions. Wheat plants (variety Yuma) were grown from seed in a greenhouse in 50% mineral soil/50% soil-less Metro mix until the first leaf was fully emerged, with 7-10 seedlings per pot. These plants were inoculated with an aqueous spore suspension of Zymoseptoria tritici either prior to or after fungicide treatments. After inoculation the plants were kept in 100% relative humidity (one day in a dark dew chamber followed by two to three days in a lighted dew chamber at 20° C.) to permit spores to germinate and infect the leaf. The plants were then transferred to a greenhouse set at 20° C. for disease to develop. When disease symptoms were fully expressed on the 1st leaves of untreated plants, infection levels were assessed on a scale of 0 to 100 percent disease severity. Percent disease control was calculated using the ratio of disease severity on treated plants relative to untreated plants. Example H: Evaluation of Fungicidal Activity: Barley Scald (Rhyncosporium secalis; Bayer Code […]) Barley seedlings (variety Harrington) were propagated in soil-less Metro mix, with each pot having 8 to 12 plants, and used in the test when first leaf was fully emerged. Test plants were inoculated by an aqueous spore suspension of Rhyncosporium secalis 24 hr after fungicide treatments. After inoculation the plants were kept in a dew room at 22° C. with 100% relative humidity for 48 hr. The plants were then transferred to a greenhouse set at 20° C. for disease to develop. Fungicide formulation, application and disease assessment on the sprayed leaves followed the procedures as described in the Example A.

Venturia inaequalis = test: Apple scab (VENTIN) disease control
Description: All fungicides were evaluated using the aforementioned method for their activity vs. all target diseases, unless stated otherwise. Wheat leaf blotch and brown rust activity were also evaluated using track spray applications, in which case the fungicides were formulated as EC formulations, containing 0.1% Trycol 5941 in the spray solutions. Wheat plants (variety Yuma) were grown from seed in a greenhouse in 50% mineral soil/50% soil-less Metro mix until the first leaf was fully emerged, with 7-10 seedlings per pot. These plants were inoculated with an aqueous spore suspension of Zymoseptoria tritici either prior to or after fungicide treatments. After inoculation the plants were kept in 100% relative humidity (one day in a dark dew chamber followed by two to three days in a lighted dew chamber at 20° C.) to permit spores to germinate and infect the leaf. The plants were then transferred to a greenhouse set at 20° C. for disease to develop. When disease symptoms were fully expressed on the 1st leaves of untreated plants, infection levels were assessed on a scale of 0 to 100 percent disease severity. Percent disease control was calculated using the ratio of disease severity on treated plants relative to untreated plants. […] Seedlings with two expanding young leaves at the top (older leaves at bottom of the plants were trimmed) were used in the test. Plants were inoculated with a spore suspension of Venturia inaequalis 24 hr after fungicide treatment and kept in a 22° C. dew chamber with 100% relative humidity for 48 hr, and then moved to a greenhouse set at 20° C. for disease to develop. Fungicide formulation, application and disease assessment on the sprayed leaves followed the procedures as described in the Example A.

Erysiphe cichoracearum = test: Powdery mildew of cucumber (ERYSCI) disease control
Description: All fungicides were evaluated using the aforementioned method for their activity vs. all target diseases, unless stated otherwise. Wheat leaf blotch and brown rust activity were also evaluated using track spray applications, in which case the fungicides were formulated as EC formulations, containing 0.1% Trycol 5941 in the spray solutions. Wheat plants (variety Yuma) were grown from seed in a greenhouse in 50% mineral soil/50% soil-less Metro mix until the first leaf was fully emerged, with 7-10 seedlings per pot. These plants were inoculated with an aqueous spore suspension of Zymoseptoria tritici either prior to or after fungicide treatments. After inoculation the plants were kept in 100% relative humidity (one day in a dark dew chamber followed by two to three days in a lighted dew chamber at 20° C.) to permit spores to germinate and infect the leaf. The plants were then transferred to a greenhouse set at 20° C. for disease to develop. When disease symptoms were fully expressed on the 1st leaves of untreated plants, infection levels were assessed on a scale of 0 to 100 percent disease severity. Percent disease control was calculated using the ratio of disease severity on treated plants relative to untreated plants. […] Plants were inoculated with a spore suspension 24 hr following fungicide treatments. After inoculation the plants remained in the greenhouse set at 20° C. until disease was fully expressed. Fungicide formulation, application and disease assessment on the sprayed leaves followed the procedures as described in the Example A.

SMILES	RHYNSE disease control, 1DP (Rhyncosporium secalis)	VENTIN disease control, 1DP (Venturia inaequalis)	ERYSCI disease control, 1DP (Erysiphe cichoracearum)
CCC(CC)[C@@H](Oc1ccc(F)cc1)[C@H](C)OC(=O)[C@H](C)NC(=O)c1nccc(OC)c1OCOC(C)=O [Cmpd 587]	B (≤ 80)	–	–
COc1ccnc(C(=O)N[C@@H](C)C(=O)O[C@@H](C)[C@@H](Oc2ccccc2)C(C)C)c1OCOC(C)=O [Cmpd 552]	–	B (≤ 80)	–
CCC(C)C(Oc1ccccc1)C(C)OC(=O)C(C)NC(=O)c1nccc(OC)c1OC(C)=O (stereo not shown) [Cmpd 691]	B (≤ 80)	–	–
COc1ccnc(C(=O)N[C@@H](C)C(=O)O[C@@H](C)[C@H](Oc2cccc(F)c2)c2ccccc2)c1OCOC(C)=O [Cmpd 574]	A (> 80)	–	–
COc1ccnc(C(=O)N[C@H](C)C(=O)O[C@H](C)[C@H](Oc2ccccc2)C(C)C)c1OCOC(C)=O [Cmpd 560]	–	B (≤ 80)	–
COc1ccnc(C(=O)N[C@@H](C)C(=O)O[C@@H](C)[C@H](Oc2ccccc2)C(C)C)c1OCOC(C)=O [Cmpd 475]	B (≤ 80)	A (> 80)	B (≤ 80)
C=CC(C)C(Oc1ccccc1)C(C)OC(=O)C(C)NC(=O)c1nccc(OC)c1OCOC(C)=O (stereo not shown) [Cmpd 694]	B (≤ 80)	B (≤ 80)	–
COc1ccnc(C(=O)N[C@@H](C)C(=O)O[C@@H](C)[C@H](Oc2ccccc2)C(C)C)c1OC(C)=O [Cmpd 478]	B (≤ 80)	–	B (≤ 80)
COc1ccnc(C(=O)N[C@@H](C)C(=O)O[C@@H](C)[C@@H](CC(C)C)Oc2ccccc2)c1OCOC(=O)C(C)C [Cmpd 1101]	A (> 80)	–	–
COc1ccnc(C(=O)N[C@@H](C)C(=O)O[C@@H](C)[C@H](Oc2cccc(Cl)c2)c2ccccc2)c1OCOC(C)=O [Cmpd 637]	D	–	–
CC[C@@H](CCOC)[C@@H](Oc1ccccc1)[C@H](C)OC(=O)[C@H](C)NC(=O)c1nccc(OC)c1OCOC(C)=O [Cmpd 476]	B (≤ 80)	–	B (≤ 80)
COc1ccnc(C(=O)N[C@@H](C)C(=O)O[C@@H](C)[C@H](Oc2cccc(Cl)c2)C(C)C)c1OC(C)=O [Cmpd 566]	A (> 80)	–	–
CCC(CC)[C@@H](Oc1ccccc1)[C@H](C)OC(=O)[C@H](C)NC(=O)c1nccc(OC)c1OC(C)=O [Cmpd 479]	B (≤ 80)	A (> 80)	A (> 80)
CCC(CC)[C@@H](Oc1ccccc1)[C@H](C)OC(=O)[C@H](C)NC(=O)c1nccc(OC)c1OCOC(C)=O [Cmpd 477]	B (≤ 80)	B (≤ 80)	A (> 80)
COc1ccnc(C(=O)N[C@@H](C)C(=O)O[C@@H](C)[C@@H](CC(C)C)Oc2ccccc2)c1OCOC(C)=O [Cmpd 557]	–	B (≤ 80)	–
COc1ccnc(C(=O)N[C@@H](C)C(=O)O[C@@H](C)[C@H](Oc2cc(F)cc(Cl)c2)c2ccccc2)c1OC(C)=O [Cmpd 642]	A (> 80)	A (> 80)	–
CC[C@@H](CCOC)[C@@H](Oc1ccccc1)[C@H](C)OC(=O)[C@H](C)NC(=O)c1nccc(OC)c1OC(C)=O [Cmpd 482]	–	–	B (≤ 80)
CCC[C@@H](Oc1ccccc1)[C@H](C)OC(=O)[C@H](C)NC(=O)c1nccc(OC)c1OCOC(C)=O [Cmpd 699]	B (≤ 80)	B (≤ 80)	–
COc1ccnc(C(=O)N[C@@H](C)C(=O)O[C@H](C)[C@@H](Oc2ccccc2)c2ccccc2)c1OCOC(C)=O [Cmpd 547]	–	B (≤ 80)	–
COc1ccnc(C(=O)N[C@@H](C)C(=O)O[C@@H](C)[C@H](Oc2ccccc2)c2ccccc2)c1OCOC(C)=O [Cmpd 500]	A (> 80)	B (≤ 80)	–
COc1ccnc(C(=O)N[C@H](C)C(=O)O[C@@H](C)[C@H](Oc2ccccc2)C(C)C)c1OCOC(C)=O [Cmpd 558]	–	B (≤ 80)	–
COc1ccnc(C(=O)N[C@H](C)C(=O)O[C@H](C)[C@@H](Oc2ccccc2)c2ccccc2)c1OCOC(C)=O [Cmpd 549]	–	B (≤ 80)	–
COc1ccnc(C(=O)N[C@H](C)C(=O)O[C@H](C)[C@@H](Oc2ccccc2)C(C)C)c1OCOC(C)=O [Cmpd 548]	–	B (≤ 80)	–
COc1ccnc(C(=O)N[C@H](C)C(=O)O[C@@H](C)[C@@H](Oc2ccccc2)C(C)C)c1OCOC(C)=O [Cmpd 559]	–	B (≤ 80)	–
COc1ccnc(C(=O)N[C@@H](C)C(=O)O[C@@H](C)[C@H](Oc2ccccc2Cl)c2ccccc2)c1OC(C)=O [Cmpd 640]	B (≤ 80)	–	–
CCCOC(CC)C(Oc1ccccc1)C(C)OC(=O)C(C)NC(=O)c1nccc(OC)c1OCOC(C)=O (stereo not shown) [Cmpd 446]	B (≤ 80)	–	–
COc1ccnc(C(=O)N[C@@H](C)C(=O)O[C@@H](C)[C@H](Oc2cc(F)cc(Cl)c2)C(C)C)c1OCOC(C)=O [Cmpd 617]	B (≤ 80)	–	–
CCC(C)C(Oc1ccccc1)C(C)OC(=O)C(C)NC(=O)c1nccc(OC)c1OCOC(C)=O (stereo not shown) [Cmpd 692]	A (> 80)	B (≤ 80)	–
COc1ccnc(C(=O)N[C@@H](C)C(=O)O[C@@H](C)[C@H](Oc2ccccc2)C2CCCC2)c1OCOC(C)=O [Cmpd 556]	B (≤ 80)	A (> 80)	–
